This note sets out measurements from patent publication US20150368248A1, “2-SUBSTITUTED-6-BIARYLMETHYLAMINO-9-CYCLOPENTYL-9H-PURINE DERIVATIVES, USE THEREOF AS MEDICAMENTS, AND PHARMACEUTICAL COMPOSITIONS” (UNIVERZITA PALACKEHO V OLOMOUCI, priority 2013, published 2015).

Data set [1] deals with human umbilical vein endothelial cells (HUVECs). The data set can be described thus: Migration scratch assay. Format: cell-based. Also on record: key to Wound area: ++: open; +: partly open; 0: closed. Particulars: for Wound area: 24 h; for inhibition of migration (in words): 24 h treatment. On the procedure:
Migration assay was performed as described previously (Krystof et al., 2011, Eur J Med Chem.; 46(9):4289-94). Briefly, confluent HUVECs were scratched and immediately treated for 24 h with various doses of compounds. After incubation each well was photographed using a DP Controller system (Olympus) connected to a Olympus BX50 microscope. Migration was expressed as the proportion of pixels of the wound area in the image that were not covered by cells using “in house” software.

The subject of another data set is Mcl-1. The data set can be described thus: Immunoblot analysis of anti-apoptotic protein Mcl-1. Format: cell-based. Particulars: Hep3B, PLC/PRF/5 and AKH3p cell lines, 24 hours. The protocol:
Effect of BP14 on cell apoptosis was complemented by immunoblot analysis of selected apoptotic proteins. For immunoblotting, cell were detached with rubber policeman and washed three times with ice-cold PBS and lysed in buffer (50 mM Tris, pH 7.4, 250 mM NaCl, 5 mM EDTA, 50 mM NaF, 1 mM Na3VO4, 1% Nonidet P40) containing mixture of protease and phosphatase inhibitors (Sigma-Aldrich, USA). 20 μg of total proteins were separated by SDS-polyacrylamide gel electrophoresis (SDS-PAGE) and transferred onto nitrocellulose membranes. Membranes were blocked in 5% milk and 0.1% Tween 20 in PBS and probed overnight with specific antibodies for PARP-1 (clone F-2; Santa Cruz Biotechnology, USA), Mcl-1 (S-19; Santa Cruz Biotechnology, USA) and β-actin (C-4, Santa Cruz Biotechnology, USA). All primary antibodies were diluted in PBS containing 5% powdered milk; 0.1% Tween 20. Peroxidase conjugated rabbit anti-mouse immunoglobulin or porcine anti-rabbit immunoglobulin antisera (DAKO, Denmark) were used as the secondary antibodies and visualised with ECL reagents (Amersham-Pharmacia, Little Chalfont, UK).

The subject of the next data set is HUVEC cells. The data set can be described thus: Tube formation assay on Matrigel. The class given is cell-based, human. As to conditions: 24 h treatment. The protocol:
For an evaluation of tube formation, HUVEC cells in endothelial cell growth medium (ECGM) containing tested compound were seeded onto Matrigel® (BD) coated ibidi angiogenesis slides (15-well, ibidi GmbH, Munich, Germany). After 24 h, images were taken using the Olympus BX50 miscoscope with DP Controller system. Evaluation of formation of tubes was expressed as a number of tubes and number of nodes of treated cells compared with untreated control using specific “in house” software.

The test system of another data set is HepG2 and PLC cells. As to the kind of experiment: Clonogenic survival assay. The class given is cell-based, human. As to conditions: 0.2 μM. On the procedure:
To analyze the clonogenic growth behavior of cell populations on tissue culture plastic, 500 cells were seeded in a 6-well plate and, either untreated or pretreated with BA-12 or BP-14 for 24 hours, incubated with standard medium for 10 days at 37° C. and 5% CO2. Colonies were fixed with methanol/acetic acid (3:1) and stained with 0.25% crystal violet. The crystal violet of fixed cells was solubilized with 1% SDS and the absorbance was photometrically determined at 560 nm.

The nature of data set [2]: Xenografted tumor formation and drug intervention. The class given is in vivo. As to conditions: SCID, mouse, in vivo, ip; mice, intraperitoneal; read-out: maximum tolerated dose (MTD). The protocol:
(§1) BrdU incorporation into cell nuclei directly indicates cell proliferation. Cultured cells were grown in medium containing 10 μM 5-bromo-2′-deoxy-uridine (BrdU) for 1 hour. After removing labeling medium, cells were fixed and DNA denatured with a fixing/denaturing solution containing 2 M HCl for 30 minutes at 37° C. To analyze BrdU incorporation in vivo, 200 μl Ringer solution containing 1 mg BrdU was intraperitoneally injected into xenografted mice 2 hours prior to analysis. Mice were sacrificed and tumor tissue was fixed in 4% formaldehyde and processed for immunohistochemistry. The incorporation of BrdU into cellular DNA was detected using a monoclonal anti-BrdU antibody (Sigma, St. Louis, USA) followed by incubation with a peroxidase-conjugated secondary antibodies (Calbiochem, LaJolla, USA) at dilutions of 1:10,000.
(§2) 5×10^6 human hepatoma cells were re-suspended in 100 μl Ringer solution and subcutaneously injected into severe combined immunodeficient (SCID) mice (Harlan Laboratories, San Pietro, Italy). Tumor volume was determined as described (36). Pharmacological intervention was performed in tumor-bearing mice for 17 days by daily intraperitoneal injection of either 5 mg/kg BA-12 or 1 mg/kg BP-14 in 100 μl of 0.01% DMSO. Control tumor-bearing mice were daily intraperitoneally injected with 100 μl of 0.01% DMSO only. All animal experiments were performed according to the Austrian guidelines for animal care and protection.
(§3) Mice were sacrificed and tumors were fixed as described (37). 4 μm thick, paraffin-embedded sections were stained with hematoxylin and eosin (H&E). For immunohistochemistry, sections were stained with anti-BrdU (Sigma, St. Louis, USA), 1:200. Biotinylated secondary antibodies were used at 1:200. The immunoperoxidase procedure was performed using a Vectastain Elite ABC kit (Vector Laboratories, CA, USA) as described by the manufacturer.

Data set [3] has as its system HepG2- and PLC-derived tumors. The data set can be described thus: Xenografted tumor formation and drug intervention. Format: in vivo. The protocol: as §1, §2, §3
In a further data set the test system is DEN-induced hepatoma. As to the kind of experiment: Diethylnitrosamine-induced liver cancer and drug intervention. The class given is in vivo, C57BL/6J mice. Particulars: 3 cycles of 10 days, i.p., breaks of 7 days. The protocol: To initiate tumor development in the liver, 14-day-old C57BL/6J mice were intraperitoneally injected with a single dose of diethylnitrosamine (DEN, 25 mg/kg). After 8 month, pharmacological intervention was administrated in DEN-induced mice by 3 cycles of treatment with compounds for 10 days and a release from compounds for 7 days between the cycles. Either 5 mg/kg BA-12 or 1 mg/kg BP-14 was intraperitoneally injected in 100 μl of 0.01% DMSO. Control mice obtained 100 μl solvent only. Thereafter, mice were sacrificed and livers were fixed in 4% formaldehyde. Two researchers independently scored the diameters of neoplasia that could be monitored at the liver surface. Cancerous nodules with a diameter of up to 1 cm, covering more than 97% of all visible hepatomas, were included into the analysis. […] All animal experiments were performed according to the Austrian guidelines for animal care and protection.

As to `NC1CCC(Nc2nc(NCc3ccc(-c4ccco4)cc3)c3ncn(C4CCCC4)c3n2)CC1` (centres unmarked) [BP4, N^2-(4-amino-cyclohexyl)-9-cyclopentyl-N^6-(4-furan-2-yl-benzyl)-9H-purine-2,6-diamine], the Wound area in data set [1] (100 nM) is recorded as 0; in data set [1] (1000 nM) it was “++”.
On to `NC1CCC(Nc2nc(NCc3ccc(-c4ccco4)nc3)c3ncn(C4CCCC4)c3n2)CC1` (centres unmarked) [BP14, N^2-(4-amino-cyclohexyl)-9-cyclopentyl-N^6-(6-furan-2-yl-pyridin-3-ylmethyl)-9H-purine-2,6-diamine], for which the “level of anti-apoptotic protein Mcl-1” value in the data set with Mcl-1 was “large dose-dependent decrease”. Moreover, the Wound area result in data set [1] (100 nM) is listed as “+”; in data set [1] (1000 nM), “++”. For the same compound, in the data set on HUVEC cells, the “branching points, number of tubes, total tube length and mean tube length” value is on record as “significantly reduced”. Also, in the data set on HepG2 and PLC cells, the “reduction of clonogenic growth behavior” value was “more than 15 fold”. Besides, in data set [2], the MTD at 17 days came to 1 mg/kg. Further, the “decrease of S-phase-positive cells by BrdU incorporation in tumors” value in data set [3] (HepG2- and PLC-derived tumors) was 2 fold. In addition, the “tumor volumes of xenografts” value in data set [3] (HepG2 and PLC xenografts, 1 mg/kg daily i.p., 17 days) is listed as “strongly reduced tumor volumes”. In data set [3] (PLC xenograft, 1 mg/kg daily i.p., 17 days), the PLC tumors entry was “regression of PLC tumors”. Further, in the data set with DEN-induced hepatoma, the “decrease of tumor nodules as compared to untreated control mice” value was 1.3 fold.
Regarding `COc1ccccc1-c1ccc(CNc2nc(NC3CCC(N)CC3)nc3c2ncn3C2CCCC2)cn1` (centres unmarked) [BP18, N^2-(4-amino-cyclohexyl)-9-cyclopentyl-N^6-[6-(2-methoxy-phenyl)-pyridin-3-ylmethyl]-9H-purine-2,6-diamine], the Wound area entry in data set [1] (100 nM) is “+”; in data set [1] (1000 nM), “++”.
On the same counts, the results for `NC1CCC(Nc2nc(NCc3ccc(-c4cccc(F)c4)nc3)c3ncn(C4CCCC4)c3n2)CC1` (centres unmarked) [BP19, N^2-(4-amino-cyclohexyl)-9-cyclopentyl-N^6-[6-(3-fluoro-phenyl)-pyridin-3-ylmethyl]-9H-purine-2,6-diamine] are “+” and “++”.
`NC1CCC(Nc2nc(NCc3ccc(-c4ccccc4O)nc3)c3ncn(C4CCCC4)c3n2)CC1` (centres unmarked) [BP20, N^2-(4-amino-cyclohexyl)-9-cyclopentyl-N^6-[6-(2-hydroxy-phenyl)-pyridin-3-ylmethyl]-9H-purine-2,6-diamine]: in data set [1] (100 nM), the Wound area result is “++” and the “inhibition of migration (in words)” value is listed as “Significant inhibition of migration”. Also, in data set [1] (1000 nM), the Wound area entry is reported as “++”. Also, the “branching points, number of tubes, total tube length and mean tube length” value in the data set with HUVEC cells was “significantly reduced”.
As for `NC1CCC(Nc2nc(NCc3ccc(-n4cccn4)cc3)c3ncn(C4CCCC4)c3n2)CC1` (centres unmarked) [BP24, N^2-(4-amino-cyclohexyl)-9-cyclopentyl-N^6-(4-pyrazol-1-yl-benzyl)-9H-purine-2,6-diamine], the Wound area result in data set [1] (100 nM) was “+”; in data set [1] (1000 nM), “++”.
Consider `NC1CCC(Nc2nc(NCc3ccc(-c4cccs4)nc3)c3ncn(C4CCCC4)c3n2)CC1` (centres unmarked) [BP30, N^2-(4-amino-cyclohexyl)-9-cyclopentyl-N^6-(6-thiophen-2-yl-pyridin-3-ylmethyl)-9H-purine-2,6-diamine], for which, in data set [1] (100 nM), the Wound area entry is given as “++” and the “inhibition of migration (in words)” value is reported as “Significant inhibition of migration”. For the same compound, the Wound area entry in data set [1] (1000 nM) is “++”.
In the case of `NC1CCC(Nc2nc(NCc3ccc(-c4ccsc4)nc3)c3ncn(C4CCCC4)c3n2)CC1` (centres unmarked) [BP35, N^2-(4-amino-cyclohexyl)-9-cyclopentyl-N^6-(6-thiophen-3-yl-pyridin-3-ylmethyl)-9H-purine-2,6-diamine], the Wound area in data set [1] (100 nM) is 0; in data set [1] (1000 nM), “++”.
The like results for `NC1CCC(Nc2nc(NCc3ccc(-c4ccoc4)nc3)c3ncn(C4CCCC4)c3n2)CC1` (centres unmarked) [BP36, N^2-(4-amino-cyclohexyl)-9-cyclopentyl-N^6-(6-furan-3-yl-pyridin-3-ylmethyl)-9H-purine-2,6-diamine] were, in that order, “+” and “++”.
